Measured values reported in patent US12329876B2, “Porous bioresorbable radiopaque embolic microspheres for drug delivery” (REVA Medical, LLC, priority 2018, dated 2025).

Assay: degradation kinetics (mass loss) of copolymers and of microbeads from copolymer blends (FIGS. 12A, 12B)
Assay type: physicochemical
Excerpt: The illustrative examples of achievable degradation profile are presented on FIGS. 12A and 12B.
Adjusting ratio of iodinated structural component (PrD-diI2DAT) and rubbery component (PEG400 or PEG1000), ratio of Carbonate to Oxalate bonds in single copolymer or utilizing blends of copolymers, a wide spectrum of degradation profiles could be achieved, including multi-step degradation.

- degradation kinetic (mass loss), result in words: slow degradation
Substance: Copolymer 50% PrD-di I2DAT-co-50% PEG1K with 100% carbonate bonds [Formula #4]
